Results published in PMC9443684 (RSC Advances, 2022).

Tests used:
MCF-7 cancer cell line = assay: MTT assay, anticancer activity against MCF-7; assay type: cell-based; conditions: Homo sapiens; for inhibition at 10 µM: MCF7, read-out: Cell growth inhibition (GI%); for IC50: MCF7, 48 h, read-out: Anticancer activity IC50
HepG2 cancer cell line = assay: MTT assay, anticancer activity against HepG2; assay type: cell-based; conditions: Homo sapiens; for inhibition at 10 µM: HepG2, read-out: Cell growth inhibition (GI%); for IC50: HepG2, 48 h, read-out: Anticancer activity IC50
HCT-116 cancer cell line = assay: MTT assay, anticancer activity against HCT-116; assay type: cell-based; conditions: Homo sapiens; for inhibition at 10 µM: HCT-116, read-out: Cell growth inhibition (GI%); for IC50: HCT-116, 48 h, read-out: Anticancer activity IC50
COX-1 = target: T1, COX-1 (Ovis aries, UniProt P05979); assay: In vitro cyclooxygenase; assay type: biochemical, ovine
T1 sequence (P05979 25-600): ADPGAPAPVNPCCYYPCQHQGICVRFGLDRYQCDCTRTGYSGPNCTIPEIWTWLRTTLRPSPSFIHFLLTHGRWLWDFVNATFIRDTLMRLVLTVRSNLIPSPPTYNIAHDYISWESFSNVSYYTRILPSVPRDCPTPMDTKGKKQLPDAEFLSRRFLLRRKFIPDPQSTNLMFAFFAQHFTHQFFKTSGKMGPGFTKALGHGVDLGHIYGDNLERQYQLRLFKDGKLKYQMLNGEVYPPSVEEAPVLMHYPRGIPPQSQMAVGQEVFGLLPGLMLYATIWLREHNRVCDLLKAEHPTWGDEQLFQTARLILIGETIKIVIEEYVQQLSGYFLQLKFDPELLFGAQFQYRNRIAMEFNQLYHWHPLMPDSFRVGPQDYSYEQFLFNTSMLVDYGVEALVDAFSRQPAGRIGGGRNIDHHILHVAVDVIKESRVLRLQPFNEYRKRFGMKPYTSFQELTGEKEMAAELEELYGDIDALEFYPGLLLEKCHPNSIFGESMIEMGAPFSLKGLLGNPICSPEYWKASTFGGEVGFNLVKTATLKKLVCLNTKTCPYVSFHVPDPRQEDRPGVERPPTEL

COX-2 = target: T2, COX-2 (Ovis aries, UniProt P79208); assay: In vitro cyclooxygenase; assay type: biochemical, ovine; conditions: for SI (selectivity index): IC50 (COX-1)/IC50 (COX-2)
T2 sequence (P79208 17-603): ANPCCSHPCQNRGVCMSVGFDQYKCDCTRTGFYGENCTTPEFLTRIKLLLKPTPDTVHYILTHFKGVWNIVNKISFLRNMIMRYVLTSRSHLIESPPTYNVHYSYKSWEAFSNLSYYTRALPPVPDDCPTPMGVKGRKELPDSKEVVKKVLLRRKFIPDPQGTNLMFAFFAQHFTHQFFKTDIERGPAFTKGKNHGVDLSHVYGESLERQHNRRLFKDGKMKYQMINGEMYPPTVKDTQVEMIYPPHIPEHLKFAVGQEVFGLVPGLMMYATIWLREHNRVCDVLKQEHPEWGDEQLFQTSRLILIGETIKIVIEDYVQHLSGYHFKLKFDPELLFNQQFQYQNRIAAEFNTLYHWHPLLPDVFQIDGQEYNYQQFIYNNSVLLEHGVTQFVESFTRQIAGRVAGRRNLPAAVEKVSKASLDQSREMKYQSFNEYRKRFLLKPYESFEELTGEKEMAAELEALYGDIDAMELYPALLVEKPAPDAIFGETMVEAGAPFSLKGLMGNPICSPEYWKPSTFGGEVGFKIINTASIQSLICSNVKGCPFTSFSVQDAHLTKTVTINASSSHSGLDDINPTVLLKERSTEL

[1] = test system: MCF-7, HepG2 and HCT-116 cancer cell lines; assay: MTT assay, statements over the three cancer cell lines together; assay type: cell-based; conditions: for IC50: read-out: Anticancer activity IC50 against the three cancer cell lines; for inhibition at 10 µM: read-out: Growth inhibition against the three cancer cell lines
EGFR = EGFR (Homo sapiens, UniProt P00533); assay: In vitro EGFR-TK inhibition assay; assay type: biochemical
Chain of EGFR (P00533 25-1210): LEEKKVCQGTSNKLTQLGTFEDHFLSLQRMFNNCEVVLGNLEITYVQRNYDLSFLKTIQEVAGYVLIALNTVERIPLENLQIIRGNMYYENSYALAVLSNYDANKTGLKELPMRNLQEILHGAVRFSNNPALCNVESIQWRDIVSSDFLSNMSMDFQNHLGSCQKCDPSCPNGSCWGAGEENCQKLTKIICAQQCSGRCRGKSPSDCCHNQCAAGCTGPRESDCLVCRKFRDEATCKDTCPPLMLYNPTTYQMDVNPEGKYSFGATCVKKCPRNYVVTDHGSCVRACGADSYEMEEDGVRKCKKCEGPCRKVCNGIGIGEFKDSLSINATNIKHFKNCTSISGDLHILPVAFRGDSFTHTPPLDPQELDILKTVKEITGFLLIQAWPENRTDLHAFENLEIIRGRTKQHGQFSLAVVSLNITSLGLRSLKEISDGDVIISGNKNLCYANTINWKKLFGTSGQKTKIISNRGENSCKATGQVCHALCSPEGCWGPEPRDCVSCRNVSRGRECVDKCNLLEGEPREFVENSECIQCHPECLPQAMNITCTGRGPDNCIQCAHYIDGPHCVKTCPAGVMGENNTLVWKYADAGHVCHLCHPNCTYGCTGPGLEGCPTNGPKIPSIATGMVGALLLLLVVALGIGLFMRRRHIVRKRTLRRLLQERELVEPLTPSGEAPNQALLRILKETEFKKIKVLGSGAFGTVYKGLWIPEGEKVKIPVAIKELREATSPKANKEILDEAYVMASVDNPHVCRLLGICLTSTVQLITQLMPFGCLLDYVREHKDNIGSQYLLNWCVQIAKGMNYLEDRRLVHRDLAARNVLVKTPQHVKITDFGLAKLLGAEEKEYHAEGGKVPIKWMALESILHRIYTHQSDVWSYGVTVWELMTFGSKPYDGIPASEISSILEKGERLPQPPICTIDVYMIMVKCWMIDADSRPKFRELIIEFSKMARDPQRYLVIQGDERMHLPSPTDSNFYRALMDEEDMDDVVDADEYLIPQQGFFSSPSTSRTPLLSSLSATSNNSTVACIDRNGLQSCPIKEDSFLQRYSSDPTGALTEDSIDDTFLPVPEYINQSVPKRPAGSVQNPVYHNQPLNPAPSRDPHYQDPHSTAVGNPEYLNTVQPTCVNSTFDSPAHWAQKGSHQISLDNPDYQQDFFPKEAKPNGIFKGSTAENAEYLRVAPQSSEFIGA

Row | SMILES | inhibition at 10 µM (MCF-7 cancer cell line) [%] | inhibition at 10 µM (HepG2 cancer cell line) [%] | inhibition at 10 µM (HCT-116 cancer cell line) [%] | IC50 (MCF-7 cancer cell line) [µM] | IC50 (HepG2 cancer cell line) [µM] | IC50 (HCT-116 cancer cell line) [µM] | IC50 (COX-1) [µM] | IC50 (COX-2) [µM] | SI (selectivity index) (COX-2) | IC50 [1] [µM] | inhibition at 10 µM [1] [%] | IC50 (EGFR) [µM]
1 | Cn1c(=O)c(C(=O)N/N=C/C(O)C(O)C(O)CO)nc2ccccc21 (stereo not drawn) [Compound 6, (E)-4-Methyl-3-oxo-N′-(2,3,4,5-tetrahydroxypentylidene)-3,4-dihydroquinoxaline-2-carbohydrazide] | 10.8 ± 0.76 | 21.4 ± 0.52 | 41.8 ± 1.27 | – | – | – | – | – | – | – | – | –
2 | Cn1c(=O)c(-c2nnco2)nc2ccccc21 [Compound 14, 1-Methyl-3-(1,3,4-oxadiazol-2-yl)quinoxalin-2(1H)-one] | 29.3 ± 0.63 | 25.7 ± 1.67 | 33.3 ± 1.32 | – | – | – | – | – | – | – | – | –
3 | CN1C(=O)/C(=N\NC(=O)c2nc3ccccc3n(C)c2=O)c2ccccc21 [Compound 4b, (Z)-4-Methyl-N′-(1-methyl-2-oxoindolin-3-ylidene)-3-oxo-3,4-dihydroquinoxaline-2-carbohydrazide] | 61.47 ± 0.37 | 52.4 ± 0.74 | 59.46 ± 0.27 | – | – | – | – | – | – | – | – | –
4 | Cn1c(=O)c(C(=O)N/N=C/c2ccc3c(c2)OCO3)nc2ccccc21 [Compound 2d, (E)-N′-(benzo[d][1,3]dioxol-5-ylmethylene)-4-methyl-3-oxo-3,4-dihydroquinoxaline-2-carbohydrazide] | 50.14 ± 0.46 | 56.95 ± 0.35 | 59.5 ± 0.78 | – | – | – | – | – | – | – | – | –
5 | Cn1c(=O)c(C(=O)N/N=C/C(O)C(O)C(O)C(O)CO)nc2ccccc21 (stereo not drawn) [Compound 7, (E)-4-Methyl-3-oxo-N′-(2,3,4,5,6-pentahydroxyhexylidene)-3,4-dihydroquinoxaline-2-carbohydrazide] | 10.3 ± 0.48 | 26.4 ± 0.83 | 33.9 ± 1.27 | – | – | – | – | – | – | – | – | –
6 | COc1cccc2c1C(=O)c1c(O)c3c(c(O)c1C2=O)C[C@@](O)(C(=O)CO)C[C@@H]3O[C@H]1C[C@H](N)[C@H](O)[C@H](C)O1 [Doxorubicin, doxorubicin, reference compound] | – | – | – | 0.9 ± 0.02 | 1.21 ± 0.08 | 0.51 ± 0.03 | – | – | – | – | – | –
7 | Cn1c(=O)c(C(=O)N/N=C/c2ccc(Cl)cc2)nc2ccccc21 [Compound 2b, (E)-N′-(4-chlorobenzylidene)-4-methyl-3-oxo-3,4-dihydroquinoxaline-2-carbohydrazide] | 95.5 ± 1.25 | 90.76 ± 0.29 | 88.68 ± 0.52 | 15.98 ± 0.06 | 12.41 ± 0.05 | 16.3 ± 0.24 | 4.42 ± 1.67 | 5.26 ± 0.49 | 0.84 | > 10 | – | –
8 | Cn1c(=O)c(C(=O)NN=Cc2ccccc2)nc2ccccc21 [Compound 2a, N′-benzylidene-4-methyl-3-oxo-3,4-dihydroquinoxaline-2-carbohydrazide] | 82.85 ± 0.49 | 89.21 ± 0.63 | 69.25 ± 0.45 | – | – | – | – | – | – | – | – | –
9 | CC(=O)C/C(=N/NC(=O)c1nc2ccccc2n(C)c1=O)c1ccccc1 [Compound 9, (Z)-4-methyl-3-oxo-N′-(3-oxo-1-phenylbutylidene)-3,4-dihydroquinoxaline-2-carbohydrazide] | 92.97 ± 0.54 | 96.83 ± 0.29 | 97.89 ± 0.69 | 6.84 ± 0.07 | 5.54 ± 0.27 | 8.75 ± 0.25 | 38.7 ± 1.27 | 2.21 ± 0.14 | 17.52 | – | ≥ 88.7 | –
10 | Cn1c(=O)c(C(=O)NN=Cc2ccc(O)cc2)nc2ccccc21 [Compound 2c, N′-(4-hydroxybenzylidene)-4-methyl-3-oxo-3,4-dihydroquinoxaline-2-carbohydrazide] | 69.72 ± 0.46 | 77.95 ± 0.56 | 61.92 ± 0.55 | – | – | – | – | – | – | – | ≥ 88.7 | –
11 | Cc1cc(C)n(C(=O)c2nc3ccccc3n(C)c2=O)n1 [Compound 12, 3-(3,5-Dimethyl-1H-pyrazole-1-carbonyl)-1-methylquinoxalin-2(1H)-one] | 33.5 ± 0.82 | 53.8 ± 1.38 | 49.2 ± 1.23 | – | – | – | – | – | – | – | – | –
12 | C/C(=N\NC(=O)c1nc2ccccc2n(C)c1=O)c1cc2ccccc2oc1=O [Compound 5, (E)-4-Methyl-3-oxo-N′-(1-(2-oxo-2H-chromen-3-yl)ethylidene)-3,4-dihydroquinoxaline-2-carbohydrazide] | 91.47 ± 0.25 | 90.79 ± 0.21 | 93.75 ± 0.29 | 3.21 ± 0.1 | 3.62 ± 0.21 | 3.46 ± 0.15 | 40.3 ± 3.35 | 0.83 ± 0.4 | 48.58 | 3.21 to 4.54 | ≥ 88.7 | 0.9 ± 0.01
13 | CN1c2ccccc2N=C(C(=O)NN)C1N=N (stereo not drawn) [Compound 10, 3-Diazenyl-4-methyl-3,4-dihydroquinoxaline-2-carbohydrazide] | 49.8 ± 0.86 | 52.4 ± 0.69 | 86.6 ± 1.31 | – | – | – | – | – | – | – | – | –
14 | Cn1c(=O)c(C(=O)NNC(=S)Nc2ccccc2)nc2ccccc21 [Compound 13, 2-(4-Methyl-3-oxo-3,4-dihydroquinoxaline-2-carbonyl)-N-phenylhydrazine-carbothioamide] | 95.39 ± 0.27 | 96.75 ± 0.29 | 97.87 ± 0.19 | 0.81 ± 0.13 | 0.96 ± 0.09 | 1.12 ± 0.19 | 30.4 ± 1.63 | 0.46 ± 0.06 | 66.11 | 0.81 to 2.91 | ≥ 88.7 | 0.4 ± 0.02
15 | Cn1c(=O)c(-c2n[nH]c(=S)o2)nc2ccccc21 [Compound 15, 1-Methyl-3-(5-thioxo-4,5-dihydro-1,3,4-oxadiazol-2-yl)quinoxalin-2(1H)-one] | 43.5 ± 0.63 | 59.5 ± 1.92 | 76.3 ± 1.22 | – | – | – | – | – | – | – | – | –
16 | Cn1c(=O)c(C(=O)N/N=C2\C(=O)Nc3ccccc32)nc2ccccc21 [Compound 4a, (Z)-4-Methyl-3-oxo-N′-(2-oxoindolin-3-ylidene)-3,4-dihydroquinoxaline-2-carbohydrazide] | 90.14 ± 0.76 | 91.82 ± 0.35 | 92.79 ± 0.15 | 4.42 ± 0.12 | 4.23 ± 0.09 | 4.54 ± 0.19 | 28.8 ± 1.02 | 1.17 ± 0.15 | 24.61 | 3.21 to 4.54 | ≥ 88.7 | 0.3 ± 0.01
17 | Cn1c(=O)c(C(=O)NNC(=O)CC(=O)c2ccccc2)nc2ccccc21 [Compound 11, 4-Methyl-3-oxo-N′-(3-oxo-3-phenylpropanoyl)-3,4-dihydroquinoxaline-2-carbohydrazide] | 92.57 ± 0.43 | 92.78 ± 0.38 | 97.63 ± 0.16 | 2.91 ± 0.23 | 2.41 ± 0.07 | 2.38 ± 0.26 | 38 ± 0.66 | 0.62 ± 0.07 | 61.23 | 0.81 to 2.91 | ≥ 88.7 | 0.6 ± 0.04
